According to patent publication US20200087248A1, “Fluoroallylamine Derivative And Use Thereof” (SICHUAN KELUN-BIOTECH BIOPHARMACEUTICAL CO., LTD., priority 2017, published 2020):
Counter-ions that a name gives are not always drawn.

What was measured:
DAO = biological target: T1, DAO (Homo sapiens, UniProt P19801); experiment: Inhibition of the enzymatic activity of DAO; format: biochemical; conditions: DAO 15 μg/ml, histamine substrate; read-out: IC50, inhibition against the enzymatic activity of DAO
T1 construct: purchased R&D Systems
T1 sequence (P19801 20-751): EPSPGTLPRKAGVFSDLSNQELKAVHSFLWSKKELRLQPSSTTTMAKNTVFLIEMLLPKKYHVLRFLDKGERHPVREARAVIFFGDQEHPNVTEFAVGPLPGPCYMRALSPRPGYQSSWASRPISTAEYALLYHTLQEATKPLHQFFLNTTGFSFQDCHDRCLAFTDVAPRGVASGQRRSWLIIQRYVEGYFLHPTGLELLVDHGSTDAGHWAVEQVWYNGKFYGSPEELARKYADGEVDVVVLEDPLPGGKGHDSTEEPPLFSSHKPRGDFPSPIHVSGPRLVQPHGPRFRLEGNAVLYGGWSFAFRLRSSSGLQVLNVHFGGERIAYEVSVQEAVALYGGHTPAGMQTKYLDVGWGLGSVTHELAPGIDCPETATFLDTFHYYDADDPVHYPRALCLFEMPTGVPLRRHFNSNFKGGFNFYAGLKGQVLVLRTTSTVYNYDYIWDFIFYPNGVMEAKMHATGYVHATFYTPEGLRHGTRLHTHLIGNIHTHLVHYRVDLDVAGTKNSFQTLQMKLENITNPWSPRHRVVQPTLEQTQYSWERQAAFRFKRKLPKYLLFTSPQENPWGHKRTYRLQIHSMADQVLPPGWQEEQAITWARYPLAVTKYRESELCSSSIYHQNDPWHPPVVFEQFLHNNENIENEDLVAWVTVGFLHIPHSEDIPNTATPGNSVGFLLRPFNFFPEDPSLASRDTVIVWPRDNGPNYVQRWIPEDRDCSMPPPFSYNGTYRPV
Method: Inhibition Experiment Against the Enzymatic Activity of DAO (Diamine Oxidase)
(§1) 1. Test kit: Amplex® Red Monoamine Oxidase Assay, Manufacturer: ThermoFisher
Protein: DAO, manufacturer: R&D Systems
DAO protein (15 μg/ml) and different concentrations of the test compound were pre-incubated at room temperature for 20 minutes, and then 100 μM Histamine-dihydrochloride, 1 U/mL HRP and 200 μM Amplex Red reagent were added to start the reaction. The inhibition rate of each concentration groups were calculated according to the experimental method of MAO-A.

MAO-B = biological target: T2, MAO-B (Homo sapiens, UniProt P27338); experiment: Inhibition of the enzymatic activity of MAO-B; format: biochemical; conditions: range of IC50 from inhibition rates at 10 μM, 1 μM and 0.1 μM; read-out: IC50, inhibition against the enzymatic activity of MAO-B
T2 construct: purchased Sigma Aldrich
T2 sequence (P27338 1-520): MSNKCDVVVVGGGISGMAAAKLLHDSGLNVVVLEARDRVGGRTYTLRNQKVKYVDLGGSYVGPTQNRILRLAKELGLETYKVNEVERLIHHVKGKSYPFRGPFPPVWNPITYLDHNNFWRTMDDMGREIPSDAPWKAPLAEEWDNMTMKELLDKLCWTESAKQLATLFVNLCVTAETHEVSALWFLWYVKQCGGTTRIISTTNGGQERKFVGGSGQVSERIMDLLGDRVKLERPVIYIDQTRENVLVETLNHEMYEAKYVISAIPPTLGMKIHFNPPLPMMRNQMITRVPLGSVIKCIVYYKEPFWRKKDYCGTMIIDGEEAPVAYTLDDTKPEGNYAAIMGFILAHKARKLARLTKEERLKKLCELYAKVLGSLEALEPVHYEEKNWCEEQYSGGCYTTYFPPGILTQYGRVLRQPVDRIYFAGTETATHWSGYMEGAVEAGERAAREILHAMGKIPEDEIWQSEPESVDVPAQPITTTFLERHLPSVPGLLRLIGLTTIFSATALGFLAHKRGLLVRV
Method: Inhibition Experiment Against the Enzymatic Activity of MAO-B (Monoamine Oxidase Type B)
as §1
Protein: MAO-B, manufacturer: Sigma Aldrich
According to the method as described in the specification of the test kit, MAO-B protein (5 μg/ml) and different concentrations of the test compound were pre-incubated at room temperature for 10 minutes, and then 150 μM benzylamine hydrochloride, 1 U/mL HRP and 200 μM Amplex Red reagent were added to start the reaction. The relative inhibition rate of each concentration group were calculated according to the experimental method of MAO-A.
According to the above method, the inhibition of the compound against the activity of the MAO-B was measured, and the range of IC50 was obtained according to the inhibition rates at 10 μM, 1 μM and 0.1 μM.

Molecule | IC50 (DAO) [nM] | IC50 (MAO-B) [nM]
NC/C(=C\F)COc1ccc(C(=O)Nc2ccccc2)cc1 [TM1-E, (E)-N-phenyl-4-((2-aminomethyl-3-fluoroallyl)oxy)-benzamide trifluoroacetate] | > 100 | 
NC/C(=C\F)COc1ccc2c(c1)C(=O)CC2 [TM7-E, (E)-6-((2-aminomethyl-3-fluoroallyl)oxy)-2,3-dihydro-1-indenone trifluoroacetate] | > 1000 | > 10000
NC/C(=C/F)COc1ccc2c(c1)CCNC2=O [TM26-Z, (Z)-6-((2-aminomethyl-3-fluoroallyl)oxy)-3,4-dihydroisoquinolin-1(2H)-one trifluoroacetate] |  | > 1000
NC/C(=C\F)COc1ccc(C(=O)NC2CCOCC2)cc1 [TM76-E, (E)-N-(tetrahydro-2H-pyran-4-yl)-4-((2-aminomethyl-3-fluoroallyl)oxy)-benzamide trifluoroacetate] | > 100 | > 1000
NC/C(=C/F)COc1ccc(C(=O)NCc2ccccn2)cc1 [TM112-Z, (Z)-4-((2-aminomethyl-3-fluoroallyl)oxy)-N-(pyridin-2-ylmethyl)benzamide trifluoroacetate] | > 100 | > 100
(E)-6-((2-(methylamino)-3-fluoroallyl)oxy)-2-methyl-3,4-dihydroisoquinolin-1(2H)-one trifluoroacetate [TM66-E] | > 100 | > 10000
(E)-6-((2-(methylamino)-3-fluoroallyl)oxy)-3,3-dimethyl-3,4-dihydro-isoquinolin-1(2H)-one trifluoroacetate [TM38-E] | > 1000 | > 10000
